The nature of this series: Saturation (equilibrium) solubility by shake-flask technique. It is filed as physicochemical. The note with it: thermodynamic from solid, 37 °C ± 1 °C. How it is done: The equilibrium solubility of Lenvatinib mesylate in different dissolution media at 37 °C ± 1 °C was measured by shake-flask technique. The dissolution media were prepared according to USP. The pH for each test solution was measured after the addition of the drug substance and at the end of the equilibrium solubility study.
1. Table 1: saturation solubility of Lenvatinib mesylate depending on pH

Counter-ions that a name gives are not always drawn.

These results are taken from EP4424303A1, “LENVATINIB COMPOSITION WITH IMPROVED BIOAVAILABILITY” (STADA ARZNEIMITTEL AG, priority 2023, dated 2024).

`COc1cc2nccc(Oc3ccc(NC(=O)NC4CC4)c(Cl)c3)c2cc1C(N)=O` [Lenvatinib mesylate, 4-[3-chloro-4-(cyclopropylaminocarbonyl)aminophenoxy]-7-methoxy-6-quinolinecarboxamide]: the solubility by setting is: (USP dissolution medium pH 2.0, simulated gastric fluid, pH 2.0, Initial pH 2.0, Final pH 1.88) 2.62 mg/mL; (USP dissolution medium pH 4.5, aqueous buffer, pH 4.5, Initial pH 4.52, Final pH 4.38) 0.013 mg/mL; (USP dissolution medium pH 5.5, aqueous buffer, pH 5.5, Initial pH 5.49, Final pH 5.25) 0.003 mg/mL; (USP dissolution medium pH 6.8, aqueous buffer, pH 6.8, Initial pH 6.82, Final pH 6.68) 0.001 mg/mL; (simulated gastric fluid, 0.1N HCl, Initial pH 1.1, Final pH 1.23) 1.83 mg/mL.
